Experimental data: patent US20080200439A1, “Methods and compositions for modulating BK channel activity and vasodilation” (University of Tennessee Research Foundation, priority 2006, published 2008)

Biological target: native BK channels in rat cerebral artery myocytes (Rattus norvegicus, UniProt P97678+Q62976)
Assay: Inside-out patch-clamp of native BK channels in freshly isolated cerebral artery myocytes
Format: cell-based
Details: I/O patches, free Ca2+i 3 μM
Procedure: Myocyte Isolation. Basilar and middle cerebral arteries were dissected out from each brain under a stereozoom microscope (Nikon C-PS, Tokio, Japan) and placed into ice-cold “dissociation medium” (DM) (mM): 0.16 CaCl2, 0.49 EDTA, 10 HEPES, 5 KCl, 0.5 KH2PO4, 2 MgCl2, 110 NaCl, 0.5 NaH2PO4, 10 NaHCO3, 0.02 phenol red, 10 taurine, 10 glucose. Each artery was cut into 1-2 mm long rings (˜30 rings/experiment). Rings were put in 3 ml DM containing 0.03% papain, 0.05% bovine serum albumin (BSA) and 0.004% dithiothreitol (DTT) for 15 min at 37° C. in a polypropylene centrifuge tube, and then incubated in a shaking water bath at 37° C. and 60 oscillations/min. for 15 min. The prepartion was then centrifuged several times as described (Liu et al., 2004). […]
Electrophysiology. […] Single-channel and macroscopic currents were recorded from inside-out (I/O) or outside-out (O/O) patches. […] Nominal free Ca^2+ was calculated with MaxChelator Sliders (C. Patton, Stanford University, California, United States of America) and validated experimentally using Ca^2+-selective electrodes (Corning Incorporated Science Products Division, Corning, N.Y., United States of America). […]
Currents were recorded using an EPC8 amplifier (HEKA Electronics, Lambrecht/Pfalz, Germany) at 1 kHz using a low-pass, eight-pole Bessel filter 902LPF (Frequency Devices, Haverhill, Mass., United States of America). […]

Chain of native BK channels in rat cerebral artery myocytes (Q62976 1-1148 isoform Q62976-2): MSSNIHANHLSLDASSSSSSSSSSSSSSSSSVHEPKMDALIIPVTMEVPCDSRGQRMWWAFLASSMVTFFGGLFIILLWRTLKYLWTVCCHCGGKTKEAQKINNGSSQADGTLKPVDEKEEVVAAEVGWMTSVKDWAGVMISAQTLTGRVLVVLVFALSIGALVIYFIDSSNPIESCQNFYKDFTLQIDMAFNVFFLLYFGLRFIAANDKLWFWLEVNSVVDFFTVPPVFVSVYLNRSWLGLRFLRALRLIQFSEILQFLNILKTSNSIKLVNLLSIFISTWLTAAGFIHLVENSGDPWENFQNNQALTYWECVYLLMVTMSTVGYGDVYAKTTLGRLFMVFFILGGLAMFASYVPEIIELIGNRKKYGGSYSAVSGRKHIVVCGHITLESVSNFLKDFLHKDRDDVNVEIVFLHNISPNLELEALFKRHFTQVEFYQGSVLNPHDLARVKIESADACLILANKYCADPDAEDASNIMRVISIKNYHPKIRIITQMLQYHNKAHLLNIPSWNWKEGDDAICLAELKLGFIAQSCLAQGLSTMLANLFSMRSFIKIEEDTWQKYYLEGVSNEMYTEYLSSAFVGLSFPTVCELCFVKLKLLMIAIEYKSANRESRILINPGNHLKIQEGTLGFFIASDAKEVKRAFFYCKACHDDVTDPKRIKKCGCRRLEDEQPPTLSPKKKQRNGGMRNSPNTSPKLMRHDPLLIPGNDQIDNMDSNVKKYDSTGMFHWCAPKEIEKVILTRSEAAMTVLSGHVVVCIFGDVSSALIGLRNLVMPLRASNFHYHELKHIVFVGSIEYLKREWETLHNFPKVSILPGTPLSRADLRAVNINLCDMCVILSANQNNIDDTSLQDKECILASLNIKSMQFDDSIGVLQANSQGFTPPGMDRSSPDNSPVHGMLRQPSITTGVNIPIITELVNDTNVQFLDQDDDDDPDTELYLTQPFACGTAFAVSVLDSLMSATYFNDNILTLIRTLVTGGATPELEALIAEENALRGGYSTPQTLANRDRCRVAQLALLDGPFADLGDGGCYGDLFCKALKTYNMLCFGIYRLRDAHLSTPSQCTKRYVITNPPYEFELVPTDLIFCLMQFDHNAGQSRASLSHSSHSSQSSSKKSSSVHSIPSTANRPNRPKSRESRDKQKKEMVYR
Chain of native BK channels in rat cerebral artery myocytes (P97678 whole entry): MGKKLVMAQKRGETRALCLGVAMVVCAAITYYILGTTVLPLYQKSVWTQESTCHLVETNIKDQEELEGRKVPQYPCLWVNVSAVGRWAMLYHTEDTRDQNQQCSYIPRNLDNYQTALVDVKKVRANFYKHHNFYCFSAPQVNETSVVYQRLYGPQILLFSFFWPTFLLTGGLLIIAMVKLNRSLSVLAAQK

**Q.** C[C@H](CCC(=O)O)[C@H]1CC[C@H]2[C@@H]3CC[C@@H]4C[C@H](O)CC[C@]4(C)[C@H]3CC[C@]12C [LC, 5β-cholanic acid 3α-ol] was tested. Which EC50 (Vm −40 to −30 mV, read-out: EC50 for increase in NPo) did it give?
**A.** 46 ± 6 µM

**Q.** And the Emax (read-out: NPo at Emax (% of control))?
**A.** 350%
